From ChEMBL document CHEMBL5532657, “Serendipitous discovery of Class I HDAC inhibitors from rational design of molecular glue degraders targeting HDAC” (Eur J Med Chem, 2024)
The source made the active and inactive calls. The calls are words filed in the database; no cut-off is given here.

Experiments:
Histone deacetylase 1 [1] = biological target: T1, Histone deacetylase 1 (Homo sapiens, UniProt Q13547); test: Binding affinity to HDAC1 (unknown origin)
Histone deacetylase 1 [2] = biological target: T1, Histone deacetylase 1; test: Induction of HDAC1 degradation in human RS4-11 cells at 0.5 to 10 uM incubated for 12 hrs by Western blotting analysis; type: cell-based; conditions: dose 0.5-10 µM
[3] = biological target: T2, Protein deacetylase HDAC6 (Homo sapiens) (UniProt Q9UBN7); test: Inhibition of HDAC6 in human RS4-11 cells assessed as effect on alpha-tubulin acetylation by Western blot assay; type: cell-based
T2 sequence (whole entry): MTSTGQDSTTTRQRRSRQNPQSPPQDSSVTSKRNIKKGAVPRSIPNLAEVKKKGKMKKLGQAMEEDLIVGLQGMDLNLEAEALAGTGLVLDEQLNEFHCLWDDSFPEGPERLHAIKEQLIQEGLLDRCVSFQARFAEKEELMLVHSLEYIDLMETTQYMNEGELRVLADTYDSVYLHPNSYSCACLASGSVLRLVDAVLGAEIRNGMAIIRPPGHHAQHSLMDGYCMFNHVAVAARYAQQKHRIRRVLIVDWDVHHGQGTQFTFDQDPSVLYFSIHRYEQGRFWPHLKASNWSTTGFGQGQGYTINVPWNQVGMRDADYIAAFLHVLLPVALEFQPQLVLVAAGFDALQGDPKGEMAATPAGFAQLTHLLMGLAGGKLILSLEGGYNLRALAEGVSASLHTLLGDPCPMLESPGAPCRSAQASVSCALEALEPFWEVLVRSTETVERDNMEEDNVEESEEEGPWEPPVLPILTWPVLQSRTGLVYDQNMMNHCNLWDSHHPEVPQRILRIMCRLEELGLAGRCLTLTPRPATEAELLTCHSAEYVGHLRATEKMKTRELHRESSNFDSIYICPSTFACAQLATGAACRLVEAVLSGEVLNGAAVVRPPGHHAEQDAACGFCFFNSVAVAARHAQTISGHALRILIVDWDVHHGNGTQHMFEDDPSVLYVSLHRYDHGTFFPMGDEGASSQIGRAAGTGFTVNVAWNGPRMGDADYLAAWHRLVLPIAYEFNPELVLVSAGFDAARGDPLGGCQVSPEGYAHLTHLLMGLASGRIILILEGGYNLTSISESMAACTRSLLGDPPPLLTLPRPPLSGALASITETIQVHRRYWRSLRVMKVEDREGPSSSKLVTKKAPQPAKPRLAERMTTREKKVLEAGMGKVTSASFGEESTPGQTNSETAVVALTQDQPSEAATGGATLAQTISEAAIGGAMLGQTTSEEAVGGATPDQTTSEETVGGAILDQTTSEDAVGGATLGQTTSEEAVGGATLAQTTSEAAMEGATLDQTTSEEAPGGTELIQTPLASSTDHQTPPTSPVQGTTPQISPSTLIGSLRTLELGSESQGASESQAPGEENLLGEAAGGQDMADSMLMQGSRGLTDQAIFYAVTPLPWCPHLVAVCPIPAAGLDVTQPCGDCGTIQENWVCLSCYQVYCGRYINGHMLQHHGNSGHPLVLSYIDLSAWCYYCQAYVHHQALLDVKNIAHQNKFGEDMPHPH

Histone deacetylase 1 [4] = biological target: T1, Histone deacetylase 1; test: Inhibition of HDAC1 (unknown origin) using BocLys(acetyl)-AMC as substrate incubated for 1 hr by fluorescence plate reader analysis
Histone deacetylase 2 = Histone deacetylase 2 (Homo sapiens, UniProt Q92769); test: Inhibition of HDAC2 in human HeLa cells nuclear extract using BocLys(acetyl)-AMC as substrate incubated for 1 hr by fluorescence plate reader analysis; type: subcellular, Nucleus
Histone deacetylase 2, sequence (Q92769 whole entry): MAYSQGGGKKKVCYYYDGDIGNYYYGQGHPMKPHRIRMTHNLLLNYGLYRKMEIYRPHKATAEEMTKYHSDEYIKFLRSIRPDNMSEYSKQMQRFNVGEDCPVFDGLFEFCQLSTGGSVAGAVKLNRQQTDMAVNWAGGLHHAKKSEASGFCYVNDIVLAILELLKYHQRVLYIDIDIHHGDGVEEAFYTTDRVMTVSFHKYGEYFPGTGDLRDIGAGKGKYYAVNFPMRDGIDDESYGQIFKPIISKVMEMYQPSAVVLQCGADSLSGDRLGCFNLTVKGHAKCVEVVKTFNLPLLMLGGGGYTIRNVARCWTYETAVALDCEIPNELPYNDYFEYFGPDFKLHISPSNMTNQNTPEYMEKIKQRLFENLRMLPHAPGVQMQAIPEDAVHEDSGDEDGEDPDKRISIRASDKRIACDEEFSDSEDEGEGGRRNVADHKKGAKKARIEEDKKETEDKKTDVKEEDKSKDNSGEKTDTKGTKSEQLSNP

Histone deacetylase 4 = Histone deacetylase 4 (Homo sapiens, UniProt P56524); test: Inhibition of HDAC4 in human HeLa cells nuclear extract using BocLys(acetyl)-AMC as substrate incubated for 1 hr by fluorescence plate reader analysis; type: subcellular, Nucleus
Histone deacetylase 4, sequence (P56524 whole entry): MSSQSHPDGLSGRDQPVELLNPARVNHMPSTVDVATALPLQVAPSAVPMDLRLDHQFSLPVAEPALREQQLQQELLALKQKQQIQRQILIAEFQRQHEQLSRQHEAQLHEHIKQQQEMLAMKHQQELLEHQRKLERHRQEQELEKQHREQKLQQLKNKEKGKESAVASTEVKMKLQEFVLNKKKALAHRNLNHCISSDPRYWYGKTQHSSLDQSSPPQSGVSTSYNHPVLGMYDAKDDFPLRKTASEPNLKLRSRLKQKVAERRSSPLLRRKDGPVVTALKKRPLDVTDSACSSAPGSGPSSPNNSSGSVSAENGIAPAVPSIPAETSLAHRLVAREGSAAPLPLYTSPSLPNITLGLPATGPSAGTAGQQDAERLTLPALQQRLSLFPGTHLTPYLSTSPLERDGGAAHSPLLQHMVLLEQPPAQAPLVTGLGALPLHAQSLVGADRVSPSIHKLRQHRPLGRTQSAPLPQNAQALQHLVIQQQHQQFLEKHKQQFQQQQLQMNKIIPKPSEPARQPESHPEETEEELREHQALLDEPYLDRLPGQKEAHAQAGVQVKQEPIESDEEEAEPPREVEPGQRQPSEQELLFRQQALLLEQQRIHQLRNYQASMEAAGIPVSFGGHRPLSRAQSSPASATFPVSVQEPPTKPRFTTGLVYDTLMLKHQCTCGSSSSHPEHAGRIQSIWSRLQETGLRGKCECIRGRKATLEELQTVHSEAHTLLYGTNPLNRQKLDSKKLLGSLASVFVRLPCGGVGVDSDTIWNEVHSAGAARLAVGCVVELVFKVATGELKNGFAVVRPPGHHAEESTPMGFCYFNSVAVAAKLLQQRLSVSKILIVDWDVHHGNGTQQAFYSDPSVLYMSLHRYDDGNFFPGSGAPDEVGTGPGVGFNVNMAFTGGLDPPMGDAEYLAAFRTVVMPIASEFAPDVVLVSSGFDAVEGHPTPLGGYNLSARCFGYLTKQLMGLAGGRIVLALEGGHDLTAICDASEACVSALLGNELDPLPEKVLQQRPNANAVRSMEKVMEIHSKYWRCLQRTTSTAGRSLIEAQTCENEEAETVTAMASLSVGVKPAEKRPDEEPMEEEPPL

Histone deacetylase 7 = biological target: T3, Histone deacetylase 7 (Homo sapiens, UniProt Q8WUI4); test: Inhibition of HDAC7 in human HeLa cells nuclear extract using BocLys(acetyl)-AMC as substrate incubated for 1 hr by fluorescence plate reader analysis; type: subcellular, Nucleus
T3 sequence (Q8WUI4 whole entry): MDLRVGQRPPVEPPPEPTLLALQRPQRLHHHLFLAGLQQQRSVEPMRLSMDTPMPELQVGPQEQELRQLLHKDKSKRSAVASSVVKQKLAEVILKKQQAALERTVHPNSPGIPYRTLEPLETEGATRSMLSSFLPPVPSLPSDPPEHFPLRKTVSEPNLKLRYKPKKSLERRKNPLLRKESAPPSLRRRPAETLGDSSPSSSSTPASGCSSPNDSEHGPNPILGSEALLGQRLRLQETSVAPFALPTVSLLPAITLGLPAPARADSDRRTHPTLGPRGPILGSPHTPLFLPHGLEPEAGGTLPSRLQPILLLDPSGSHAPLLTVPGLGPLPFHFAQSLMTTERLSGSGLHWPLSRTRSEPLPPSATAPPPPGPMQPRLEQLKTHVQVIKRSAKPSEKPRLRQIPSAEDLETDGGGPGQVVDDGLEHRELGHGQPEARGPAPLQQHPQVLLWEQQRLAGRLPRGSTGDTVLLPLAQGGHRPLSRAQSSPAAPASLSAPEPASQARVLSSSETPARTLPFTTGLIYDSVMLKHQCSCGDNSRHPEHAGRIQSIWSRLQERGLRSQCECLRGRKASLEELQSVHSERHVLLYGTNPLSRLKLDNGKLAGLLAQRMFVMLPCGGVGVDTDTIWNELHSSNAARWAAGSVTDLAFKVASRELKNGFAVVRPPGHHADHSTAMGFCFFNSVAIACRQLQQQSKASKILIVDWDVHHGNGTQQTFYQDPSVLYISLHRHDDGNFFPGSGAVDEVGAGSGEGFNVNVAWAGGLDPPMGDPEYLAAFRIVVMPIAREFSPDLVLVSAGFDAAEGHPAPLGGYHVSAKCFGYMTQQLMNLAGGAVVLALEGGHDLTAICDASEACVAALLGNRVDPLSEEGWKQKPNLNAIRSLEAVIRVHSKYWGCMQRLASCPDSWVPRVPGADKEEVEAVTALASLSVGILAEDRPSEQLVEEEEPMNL

RS4-11 [5] = test: Antiproliferative activity against human RS4-11 cells assessed as cell growth inhibition at 5 uM incubated for 48 hrs by CCK-8 assay; type: functional, cell-based
RS4-11 [6] = test: Antiproliferative activity against human RS4-11 cells assessed as cell growth inhibition incubated for 48 hrs by CCK-8 assay; type: functional, cell-based; conditions: RS4-11, 48 h
[7] = biological target: Histone deacetylase (Homo sapiens) (UniProt Q13547+O15379+Q9UBN7+Q92769+Q9UQL6+Q8WUI4+Q9BY41+Q96DB2+P56524+Q9UKV0+Q969S8); test: Inhibition of HDAC in human RS4-11 cells assessed as upregulation of histone H4 acetylation at 1 to 10 uM by Western blot assay; type: cell-based; conditions: dose 1-10 µM
[8] = biological target: T2, Protein deacetylase HDAC6 (Homo sapiens); test: Inhibition of HDAC6 in human RS4-11 cells assessed as upregulation of alpha-tubulin acetylation at 1 to 10 uM by Western blot assay; type: cell-based; conditions: dose 1-10 µM
RS4-11 [9] = test: Induction of apoptosis in human RS4-11 cells assessed as downregulation of Bcl-2 level; type: functional, cell-based; conditions: dose 1-10 µM
RS4-11 [10] = test: Induction of apoptosis in human RS4-11 cells assessed as upregulation of Bax level; type: functional, cell-based; conditions: dose 1-10 µM

T1 sequence (Q13547 whole entry): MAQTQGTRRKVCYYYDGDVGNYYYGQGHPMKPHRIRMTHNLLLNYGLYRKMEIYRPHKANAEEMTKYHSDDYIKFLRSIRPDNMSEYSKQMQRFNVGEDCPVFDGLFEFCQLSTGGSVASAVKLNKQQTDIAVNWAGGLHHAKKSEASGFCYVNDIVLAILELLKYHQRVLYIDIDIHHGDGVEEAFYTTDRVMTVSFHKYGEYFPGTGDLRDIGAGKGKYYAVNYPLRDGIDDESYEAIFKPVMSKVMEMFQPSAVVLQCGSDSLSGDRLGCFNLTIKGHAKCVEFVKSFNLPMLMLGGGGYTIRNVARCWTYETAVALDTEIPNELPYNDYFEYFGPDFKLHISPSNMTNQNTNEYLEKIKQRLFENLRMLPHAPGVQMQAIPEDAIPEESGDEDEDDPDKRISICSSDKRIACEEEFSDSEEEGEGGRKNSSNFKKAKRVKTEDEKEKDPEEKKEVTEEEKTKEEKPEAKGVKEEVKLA

SMILES	Kd (Histone deacetylase 1 [1])	Activity (Histone deacetylase 1 [2])	Activity [3]	IC50 (Histone deacetylase 1 [4])	IC50 (Histone deacetylase 2)	IC50 (Histone deacetylase 4)	IC50 (Histone deacetylase 7)	Activity (RS4-11 [5])	IC50 (RS4-11 [6])	Activity [7]	Activity [8]	Activity (RS4-11 [9])	Activity (RS4-11 [10])
Nc1ccccc1NC(=O)c1ccc(CNc2cccc3c2C(=O)N(C2CCC(=O)NC2=O)C3=O)cc1 (stereo unspecified)	41.3 µM	inactive	inactive	0.551 µM	0.379 µM	> 2 µM	> 2 µM	Active	1.57 µM	Active	inactive	Dose-Dependent Effect	Dose-Dependent Effect
Nc1cc(F)ccc1NC(=O)c1ccc(CNc2cccc3c2C(=O)N(C2CCC(=O)NC2=O)C3=O)cc1 (stereo unspecified)	16.7 µM	inactive	inactive	0.457 µM	0.434 µM	> 2 µM	> 2 µM	Active	2.11 µM	Active	inactive	Dose-Dependent Effect	Dose-Dependent Effect
